Assay results published in the RepoRT retention time repository.

Assay: RP, Restek Raptor Biphenyl, 100 × 2.1 mm, 2.7 µm, 50 °C, 0.4 mL/min, estimated dead time 0.55 min; A: water + 0.1% formic acid, pH 3; B: methanol + 0.1% formic acid, pH 3; gradient (min/%B) 0/5 1.12/5 6.41/99.5 10.01/99.5
Settings: stereoisomer not certain
Work on `CC(=O)NCCCC(=O)O` [4-ACETAMIDOBUTANOATE] yielded an LC retention time of 1.42 min.
In the case of `O=C(Nc1ccccc1)Nc1cnns1` [Thidiazuron], the LC retention time is reported as 4.75 min.
In the case of `O=C(O)CCC(O)CC(=O)O` (configuration not stated) [3-Hydroxyhexanedioic Acid], the LC retention time is reported as 0.954 min.
With `CCCCCCC[n+]1cccc(S(=O)(=O)[O-])c1` [C7-APS] the LC retention time was 4.41 min.
For `CCCCCCCCCCCCCCCCCCCCCCCCCCC(=O)O` [Heptacosanoic Acid], the LC retention time was 7.05 min.
`CCCCCC=CCC=CCC=CCC=CCC=CCCC(=O)O` [all-cis-4,7,10,13,16-Docosapentaenoic acid] gave an LC retention time of 6.7 min.
In the case of `O=C(O)c1cc(=O)c2cccc(O)c2[nH]1` [Xanthurenic acid], the LC retention time is reported as 3.14 min.
For `CCCCCCCCCCCCCC(O)CC(=O)OC(CC(=O)[O-])C[N+](C)(C)C` [[(3R)-3-Hydroxyhexadecanoyl]-L-carnitine], the LC retention time was 5.77 min.
In the case of `O=C(O)CCCC(=O)O` [Glutaric acid], the LC retention time is reported as 1.37 min.
In the case of `CCCCC(O)(Cn1cncn1)c1ccc(Cl)cc1Cl` (configuration not stated) [Hexaconazole], the LC retention time is reported as 5.98 min.
Compound `C#CCCCCCCCCCCCCCCCC(=O)O` [17-Octadecynoic acid] has an LC retention time of 6.53 min.
Work on `CCCCCCCCCCCCC(O)C(=O)O` (configuration not stated) [2-Hydroxytetradecanoic acid] yielded an LC retention time of 6.09 min.
In the case of `O=C(O)c1cc(O)ccc1O` [2,5-DIHYDROXYBENZOATE], the LC retention time is reported as 2.57 min.
Compound `O=C(O)CNC(=O)c1ccccc1` [HIPPURATE] has an LC retention time of 3.44 min.
`CCCCCCCCCCCCCCCCCCCC[n+]1cccc(S(=O)(=O)[O-])c1` [C20-APS] showed an LC retention time of 6.67 min.
In the case of `CCCCCCCCCCCCCCC(=O)O` [Pentadecanoic acid], the LC retention time is reported as 6.44 min.
With `O=C(O)CCc1c[nH]c2ccccc12` [Indole-3-propionic acid] the LC retention time was 4.66 min.
Compound `COc1cc(CC(=O)O)ccc1O` [HOMOVANILLATE] has an LC retention time of 2.46 min.
`O=C(O)CNC(=O)C=Cc1ccccc1` [N-(CINNAMOYL)GLYCINE] gave an LC retention time of 4.42 min.
`O=C(O)c1cccnc1C(=O)O` [QUINOLINATE] gave an LC retention time of 1 min.
With `C=CC(=O)O` [2-PROPENOATE] the LC retention time was 0.959 min.
`Cc1cn(C2CC(O)C(COP(=O)(O)O)O2)c(=O)[nH]c1=O` (configuration not stated) [THYMIDINE-MONOPHOSPHATE] gave an LC retention time of 0.837 min.
Work on `C=CCNC(=O)c1c([Si](C)(C)C)sc(C)c1C` [Silthiofam] yielded an LC retention time of 6 min.
For `O=C1O[C@H]([C@@H](O)CO)C(O)=C1O` [L-Ascorbic acid], the LC retention time was 3.46 min.
Compound `CSCC1OC(n2cnc3c(N)ncnc32)C(O)C1O` (configuration not stated) [METHYLTHIOADENOSINE] has an LC retention time of 3.18 min.
Work on `CC(CCC(=O)O)C1CCC2C3CCC4CC(O)CCC4(C)C3CC(O)C12C` (configuration not stated) [Deoxycholic acid] yielded an LC retention time of 6.37 min.
In the case of `O=C(O)C(=O)Cc1ccccc1` [Phenylpyruvic acid], the LC retention time is reported as 2.88 min.
`Cn1c(=O)c2[nH]cnc2n(C)c1=O` [THEOPHYLLINE] showed an LC retention time of 3.54 min.
In the case of `C[C@H](CCC(=O)O)[C@H]1CC[C@H]2[C@@H]3[C@H](O)C[C@@H]4C[C@H](O)CC[C@]4(C)[C@H]3CC(=O)[C@]12C` [(3ALPHA,5BETA,7ALPHA)-3,7-DIHYDROXY-12-OXOCHOLAN-24-OIC ACID], the LC retention time is reported as 6.07 min.
Compound `Nc1nc2c(ncn2C2CC(O)C(COP(=O)(O)OP(=O)(O)O)O2)c(=O)[nH]1` (configuration not stated) [DGDP] has an LC retention time of 0.695 min.
Compound `CCCC(C(=O)O)C(O)C(=O)O` (configuration not stated) [3-Propylmalic acid] has an LC retention time of 2.81 min.
Compound `CCCCCCCC[n+]1cccc(S(=O)(=O)[O-])c1` [C8-APS] has an LC retention time of 4.8 min.
Compound `Nc1ncnc2c1ncn2C1OC(COP(=O)(O)O)C(OP(=O)(O)O)C1O` (configuration not stated) [ADENOSINE 3',5'-DIPHOSPHATE] has an LC retention time of 0.695 min.
With `O=C(O)CCCCCCC(O)CC(=O)O` (configuration not stated) [3-Hydroxy Sebacic Acid] the LC retention time was 3.95 min.
Compound `O=C(O)c1ccc[nH]1` [PYRROLE-2-CARBOXYLATE] has an LC retention time of 3.3 min.
For `CN(C)C(=O)Nc1ccc(Cl)c(Cl)c1` [Diuron], the LC retention time was 5.22 min.
`CCCCCCCCC=CCCCCCCCCCCCC(=O)O` [Erucic acid] showed an LC retention time of 6.84 min.
